From US20050222267A1, “Solution based methacholine formulations” (priority 2004, published 2005)
Like-named read-outs stand apart in the source and are kept apart here.

What was measured:
[1] = cited from earlier work
[2] = Terminal steam sterilisation (Example 3): recovery (product potency); format: physicochemical; conditions: 20 L batches at 16 mg/ml and 0.25 mg/ml without buffer; conventional terminal steam sterilisation
Experimental: The influence of terminal steam sterilisation on the chemical properties of the methacholine drug product was determined, specifically in terms of the influence of heat on the product potency and impurity levels within the formulations.
[…] A formulation having a relatively high concentration of methacholine was used so that any changes in chemical properties were readily apparent.
The procedure described below was used for performing the high pressure liquid chromatography (HPLC) assay analysis of methacholine chloride in solution.

[3] = cited from earlier work; remark: listed apart in the source

- stability to terminal steam sterilisation [2]: did not withstand the high temperatures
SMILES: CC(=O)OC(C)C[N+](C)(C)C (centres unmarked) [methacholine, methacholine chloride]
- pH of the saline solution ([1]; methacholine 0.39 mg/ml in saline): 3.9
- pH of the saline solution ([1]; methacholine 50 mg/ml in saline): 2.7
- decomposition by hydrolysis ([3]; pH of the solution above 6): rapidly decompose
- time stable in solution ([3]; solutions of >0.3 mg/ml, stored at 4° C.): at least five
